Laboratory results from ChEMBL document CHEMBL5108044, “Discovery of a Novel Potent STAT3 Inhibitor HP590 with Dual p-Tyr705/Ser727 Inhibitory Activity for Gastric Cancer Treatment” (J Med Chem, 2022).

tested on: MKN-45; test: Antiproliferative activity against human MKN-45 cells assessed as reduction in cell viability incubated for 72 hrs by MTS assay; format: functional, cell-based; conditions: MKN-45, 72 h

| IC50 [nM] | Compound |
| --- | --- |
| 54.5 | CC(C)(C)c1ccc(CN2CCN(C(=O)c3ccc(-c4nc(-c5ccc(C(F)(F)F)cc5)no4)nc3)CC2)cc1 |
| 108 | O=C(c1ccc(-c2nc(-c3ccc(C(F)(F)F)cc3)no2)nc1)N1CCN(Cc2ccc(Br)cc2)CC1 |
| 18.4 | O=C(c1ccc(-c2nc(-c3ccc(C(F)(F)F)cc3)no2)nc1)N1CCN(Cc2ccc(OCC(F)(F)F)cc2)CC1 |
| 3940 | CC(=O)c1cc2c(o1)C(=O)c1ccccc1C2=O [NAPABUCASIN] |

Second part, the compound before the results:

| Compound | IC50 [nM] |
| --- | --- |
| O=C(c1ccc(-c2nc(-c3ccc(C(F)(F)F)cc3)no2)nc1)N1CCN(Cc2ccc(OC(F)(F)F)cc2)CC1 | 16.4 |
| O=C(c1ccc(-c2nc(-c3ccc(C(F)(F)F)c(F)c3)no2)nc1)N1CCN(Cc2ccc(OCC(F)(F)F)cc2)CC1 | 21.2 |
| O=C(c1ccc(-c2nc(-c3ccc(C(F)(F)F)cc3)no2)cn1)N1CCN(Cc2ccc(OCC(F)(F)F)cc2)CC1 | 24.6 |
| O=C(c1cccc(-c2nc(-c3ccc(C(F)(F)F)cc3)no2)c1)N1CCN(Cc2ccc(OCC(F)(F)F)cc2)CC1 | 41.6 |
| O=C(c1ccc(-c2nc(-c3ccc(OC(F)(F)F)cc3)no2)nc1)N1CCN(Cc2ccc(OCC(F)(F)F)cc2)CC1 | 36.4 |
| O=C(c1cnc(-c2noc(-c3ccc(C(F)(F)F)cc3)n2)cn1)N1CCN(Cc2ccc(OCC(F)(F)F)cc2)CC1 | 49.5 |
| O=C(c1cc(-c2nc(-c3ccc(C(F)(F)F)cc3)no2)ccn1)N1CCN(Cc2ccc(OCC(F)(F)F)cc2)CC1 | 153 |

tested on: MGC-803; test: Antiproliferative activity against human MGC-803 cells assessed as reduction in cell viability incubated for 72 hrs by MTS assay; format: functional, cell-based; conditions: MGC-803, 72 h

| IC50 [nM] | Compound |
| --- | --- |
| 31.8 | CC(C)(C)c1ccc(CN2CCN(C(=O)c3ccc(-c4nc(-c5ccc(C(F)(F)F)cc5)no4)nc3)CC2)cc1 |
| 67.6 | O=C(c1ccc(-c2nc(-c3ccc(C(F)(F)F)cc3)no2)nc1)N1CCN(Cc2ccc(Br)cc2)CC1 |
| 11.5 | O=C(c1ccc(-c2nc(-c3ccc(C(F)(F)F)cc3)no2)nc1)N1CCN(Cc2ccc(OCC(F)(F)F)cc2)CC1 |
| 872 | CC(=O)c1cc2c(o1)C(=O)c1ccccc1C2=O [NAPABUCASIN] |

Second part, the compound before the results:

| Compound | IC50 [nM] |
| --- | --- |
| O=C(c1ccc(-c2nc(-c3ccc(C(F)(F)F)cc3)no2)nc1)N1CCN(Cc2ccc(OC(F)(F)F)cc2)CC1 | 12.7 |
| O=C(c1ccc(-c2nc(-c3ccc(C(F)(F)F)c(F)c3)no2)nc1)N1CCN(Cc2ccc(OCC(F)(F)F)cc2)CC1 | 22.2 |
| O=C(c1ccc(-c2nc(-c3ccc(C(F)(F)F)cc3)no2)cn1)N1CCN(Cc2ccc(OCC(F)(F)F)cc2)CC1 | 15.3 |
| O=C(c1cccc(-c2nc(-c3ccc(C(F)(F)F)cc3)no2)c1)N1CCN(Cc2ccc(OCC(F)(F)F)cc2)CC1 | 28.1 |
| O=C(c1ccc(-c2nc(-c3ccc(OC(F)(F)F)cc3)no2)nc1)N1CCN(Cc2ccc(OCC(F)(F)F)cc2)CC1 | 23.3 |
| O=C(c1cnc(-c2noc(-c3ccc(C(F)(F)F)cc3)n2)cn1)N1CCN(Cc2ccc(OCC(F)(F)F)cc2)CC1 | 32.4 |
| O=C(c1cc(-c2nc(-c3ccc(C(F)(F)F)cc3)no2)ccn1)N1CCN(Cc2ccc(OCC(F)(F)F)cc2)CC1 | 13.1 |

tested on: AGS; test: Antiproliferative activity against human AGS cells assessed as reduction in cell viability incubated for 72 hrs by MTS assay; format: functional, cell-based; conditions: not given

| IC50 [nM] | Compound |
| --- | --- |
| 67.6 | CC(C)(C)c1ccc(CN2CCN(C(=O)c3ccc(-c4nc(-c5ccc(C(F)(F)F)cc5)no4)nc3)CC2)cc1 |
| 77.8 | O=C(c1ccc(-c2nc(-c3ccc(C(F)(F)F)cc3)no2)nc1)N1CCN(Cc2ccc(Br)cc2)CC1 |
| 8.4 | O=C(c1ccc(-c2nc(-c3ccc(C(F)(F)F)cc3)no2)nc1)N1CCN(Cc2ccc(OCC(F)(F)F)cc2)CC1 |
| 437 | CC(=O)c1cc2c(o1)C(=O)c1ccccc1C2=O [NAPABUCASIN] |

The remaining lines, values behind:

| Compound | IC50 [nM] |
| --- | --- |
| O=C(c1ccc(-c2nc(-c3ccc(C(F)(F)F)cc3)no2)nc1)N1CCN(Cc2ccc(OC(F)(F)F)cc2)CC1 | 59.8 |
| O=C(c1ccc(-c2nc(-c3ccc(C(F)(F)F)c(F)c3)no2)nc1)N1CCN(Cc2ccc(OCC(F)(F)F)cc2)CC1 | 21.5 |
| O=C(c1ccc(-c2nc(-c3ccc(C(F)(F)F)cc3)no2)cn1)N1CCN(Cc2ccc(OCC(F)(F)F)cc2)CC1 | 22.8 |
| O=C(c1cccc(-c2nc(-c3ccc(C(F)(F)F)cc3)no2)c1)N1CCN(Cc2ccc(OCC(F)(F)F)cc2)CC1 | 27.1 |
| O=C(c1ccc(-c2nc(-c3ccc(OC(F)(F)F)cc3)no2)nc1)N1CCN(Cc2ccc(OCC(F)(F)F)cc2)CC1 | 23.5 |
| O=C(c1cnc(-c2noc(-c3ccc(C(F)(F)F)cc3)n2)cn1)N1CCN(Cc2ccc(OCC(F)(F)F)cc2)CC1 | 27.2 |
| O=C(c1cc(-c2nc(-c3ccc(C(F)(F)F)cc3)no2)ccn1)N1CCN(Cc2ccc(OCC(F)(F)F)cc2)CC1 | 8.7 |

tested on: not listed separately; test: Inhibition of ATP production in human MKN-45 cells incubated for 20 to 24 hrs by ATP assay kit method; format: functional, cell-based; conditions: not given

| IC50 [nM] | Compound |
| --- | --- |
| 200 | CC(C)(C)c1ccc(CN2CCN(C(=O)c3ccc(-c4nc(-c5ccc(C(F)(F)F)cc5)no4)nc3)CC2)cc1 |
| 520 | O=C(c1ccc(-c2nc(-c3ccc(C(F)(F)F)cc3)no2)nc1)N1CCN(Cc2ccc(Br)cc2)CC1 |
| 72.5 | O=C(c1ccc(-c2nc(-c3ccc(C(F)(F)F)cc3)no2)nc1)N1CCN(Cc2ccc(OCC(F)(F)F)cc2)CC1 |

Second part, the compound before the results:

| Compound | IC50 [nM] |
| --- | --- |
| O=C(c1ccc(-c2nc(-c3ccc(C(F)(F)F)cc3)no2)nc1)N1CCN(Cc2ccc(OC(F)(F)F)cc2)CC1 | 598 |
| O=C(c1ccc(-c2nc(-c3ccc(C(F)(F)F)c(F)c3)no2)nc1)N1CCN(Cc2ccc(OCC(F)(F)F)cc2)CC1 | 218 |
| O=C(c1ccc(-c2nc(-c3ccc(C(F)(F)F)cc3)no2)cn1)N1CCN(Cc2ccc(OCC(F)(F)F)cc2)CC1 | 97.8 |
| O=C(c1cccc(-c2nc(-c3ccc(C(F)(F)F)cc3)no2)c1)N1CCN(Cc2ccc(OCC(F)(F)F)cc2)CC1 | 55.9 |
| O=C(c1ccc(-c2nc(-c3ccc(OC(F)(F)F)cc3)no2)nc1)N1CCN(Cc2ccc(OCC(F)(F)F)cc2)CC1 | 93.2 |
| O=C(c1cnc(-c2noc(-c3ccc(C(F)(F)F)cc3)n2)cn1)N1CCN(Cc2ccc(OCC(F)(F)F)cc2)CC1 | 242 |
| O=C(c1cc(-c2nc(-c3ccc(C(F)(F)F)cc3)no2)ccn1)N1CCN(Cc2ccc(OCC(F)(F)F)cc2)CC1 | 87.6 |

biological target: Signal transducer and activator of transcription 3 (Homo sapiens, UniProt P40763); test: Inhibition of human recombinant STAT3 (127 to 722 residues) transcriptional activity expressed in HEK293T cells in presence of IL-6 by Dual-luciferase reporter gene assay; format: cell-based; conditions: not given
Sequence (P40763 whole entry, the tested form may be a part): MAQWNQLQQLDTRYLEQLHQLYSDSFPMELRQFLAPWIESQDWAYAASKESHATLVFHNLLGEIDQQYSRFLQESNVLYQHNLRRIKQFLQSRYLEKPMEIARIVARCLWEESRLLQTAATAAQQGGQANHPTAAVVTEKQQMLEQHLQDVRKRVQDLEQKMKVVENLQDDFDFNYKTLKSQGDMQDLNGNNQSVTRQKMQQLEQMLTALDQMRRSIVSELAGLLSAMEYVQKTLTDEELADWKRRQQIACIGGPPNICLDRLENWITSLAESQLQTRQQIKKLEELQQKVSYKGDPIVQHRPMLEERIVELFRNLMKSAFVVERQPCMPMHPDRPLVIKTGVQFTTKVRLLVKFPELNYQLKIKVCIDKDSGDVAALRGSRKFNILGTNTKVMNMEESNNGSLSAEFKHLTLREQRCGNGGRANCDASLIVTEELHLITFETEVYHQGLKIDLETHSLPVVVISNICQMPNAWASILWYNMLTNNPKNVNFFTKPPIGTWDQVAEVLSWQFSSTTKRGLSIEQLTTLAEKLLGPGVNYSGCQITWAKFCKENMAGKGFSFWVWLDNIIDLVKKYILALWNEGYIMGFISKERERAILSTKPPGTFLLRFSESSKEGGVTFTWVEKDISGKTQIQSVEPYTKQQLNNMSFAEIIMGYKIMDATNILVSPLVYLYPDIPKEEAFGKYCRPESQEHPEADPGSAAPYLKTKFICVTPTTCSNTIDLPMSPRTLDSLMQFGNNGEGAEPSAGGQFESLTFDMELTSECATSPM

| IC50 [nM] | Compound |
| --- | --- |
| > 1000 | O=C(c1ccc(-c2nc(-c3ccc(C(F)(F)F)cc3)no2)nc1)N1CCN(Cc2ccccc2OCC(F)(F)F)CC1 |
| 167 | O=C(c1ccc(-c2nc(-c3ccc(C(F)(F)F)cc3)no2)s1)N1CCN(Cc2ccc(OCC(F)(F)F)cc2)CC1 |
| > 1000 | O=C(c1ccccc1-c1nc(-c2ccc(C(F)(F)F)cc2)no1)N1CCN(Cc2ccc(OCC(F)(F)F)cc2)CC1 |
| 88.1 | CC(C)(C)c1ccc(CN2CCN(C(=O)c3ccc(-c4nc(-c5ccc(C(F)(F)F)cc5)no4)nc3)CC2)cc1 |
| 40.2 | O=C(c1ccc(-c2nc(-c3ccc(C(F)(F)F)cc3)no2)nc1)N1CCN(Cc2ccc(Br)cc2)CC1 |
| 182 | Cc1ccc(CN2CCN(C(=O)c3ccc(-c4nc(-c5ccc(C(F)(F)F)cc5)no4)nc3)CC2)cc1 |
| > 1000 | O=C(c1ccc(-c2nc(-c3ccccc3F)no2)nc1)N1CCN(Cc2ccc(OCC(F)(F)F)cc2)CC1 |
| > 1000 | O=C(c1ccc(-c2nc(-c3ccc(C(F)(F)F)cc3)no2)nc1)N1CCN(Cc2ccc(NCC(F)(F)F)cc2)CC1 |
| 37.4 | O=C(c1ccc(-c2nc(-c3ccc(C(F)(F)F)cc3)no2)nc1)N1CCN(Cc2ccc(OCC(F)(F)F)cc2)CC1 |

The next lines start with the compound.

| Compound | IC50 [nM] |
| --- | --- |
| O=C(c1ncccc1-c1nc(-c2ccc(C(F)(F)F)cc2)no1)N1CCN(Cc2ccc(OCC(F)(F)F)cc2)CC1 | > 1000 |
| O=C(c1ccc(-c2nc(-c3ccc(C(F)(F)F)cc3)cs2)nc1)N1CCN(Cc2ccc(OCC(F)(F)F)cc2)CC1 | 516 |
| O=C(c1ccc(-c2nc(-c3cncs3)no2)nc1)N1CCN(Cc2ccc(OCC(F)(F)F)cc2)CC1 | > 1000 |
| O=C(c1ccc(-c2nc(-c3cccc(C(F)(F)F)c3)no2)nc1)N1CCN(Cc2ccc(OCC(F)(F)F)cc2)CC1 | 130 |
| O=C(c1ccc(-c2nc(-c3ccc(C(F)(F)F)cc3)no2)nc1)N1CCN(Cc2ccc(OC(F)(F)F)cc2)CC1 | 63.6 |
| CCN1CCN(C(=O)c2ccc(-c3nc(-c4ccc(C(F)(F)F)cc4)no3)nc2)CC1 | > 1000 |
| O=C(c1ccc(-c2nc(-c3ccc(C(F)(F)F)cc3)no2)nc1)N1CCN(Cc2ccc(Br)cc2F)CC1 | 564 |
| O=C(c1ccc(OC(F)(F)F)cc1)N1CCN(C(=O)c2ccc(-c3nc(-c4ccc(C(F)(F)F)cc4)no3)nc2)CC1 | > 1000 |
| O=C(c1ncc(-c2nc(-c3ccc(C(F)(F)F)cc3)no2)s1)N1CCN(Cc2ccc(OCC(F)(F)F)cc2)CC1 | > 1000 |
| COc1ccc(CN2CCN(C(=O)c3ccc(-c4nc(-c5ccc(C(F)(F)F)cc5)no4)nc3)CC2)cc1 | 147 |
| COc1ccc(-c2noc(-c3ccc(C(=O)N4CCN(Cc5ccc(OCC(F)(F)F)cc5)CC4)cn3)n2)cc1 | 113 |
| O=C(c1ccc(-c2nc(-c3ccc(C(F)(F)F)c(F)c3)no2)nc1)N1CCN(Cc2ccc(OCC(F)(F)F)cc2)CC1 | 40.2 |
| O=C(c1ccc(-c2nc(-c3ccc(C(F)(F)F)cc3)no2)cn1)N1CCN(Cc2ccc(OCC(F)(F)F)cc2)CC1 | 75.9 |
| O=C(c1cccc(-c2nc(-c3ccc(C(F)(F)F)cc3)no2)c1)N1CCN(Cc2ccc(OCC(F)(F)F)cc2)CC1 | 52.1 |
| O=C(c1ccc(-c2nc(-c3ccc(OC(F)(F)F)cc3)no2)nc1)N1CCN(Cc2ccc(OCC(F)(F)F)cc2)CC1 | 60.2 |
| O=C(c1cnc(-c2noc(-c3ccc(C(F)(F)F)cc3)n2)cn1)N1CCN(Cc2ccc(OCC(F)(F)F)cc2)CC1 | 58 |
| O=C(c1cc(-c2nc(-c3ccc(C(F)(F)F)cc3)no2)ccn1)N1CCN(Cc2ccc(OCC(F)(F)F)cc2)CC1 | 32.3 |
